According to ChEMBL document CHEMBL4417631, “Oral peptide inhibitors of interleukin-23 receptor and their use to treat inflammatory bowel diseases” (2017):

Columns and labels:
[1] = Half life in simulated gastric fluid at 20 uM by LC-MS/MS analysis; assay type: ADME
[2] = Half life in simulated intestinal fluid at 20 uM by LC-MS/MS analysis; assay type: ADME
[3] = molecular target: T1, Interleukin-23 receptor (Homo sapiens, UniProt Q5VWK5); experiment: Inhibition of interleukin-23 binding to human interleukin-23 receptor incubated for 2 hrs by competitive binding ELISA
T1 sequence (Q5VWK5 whole entry): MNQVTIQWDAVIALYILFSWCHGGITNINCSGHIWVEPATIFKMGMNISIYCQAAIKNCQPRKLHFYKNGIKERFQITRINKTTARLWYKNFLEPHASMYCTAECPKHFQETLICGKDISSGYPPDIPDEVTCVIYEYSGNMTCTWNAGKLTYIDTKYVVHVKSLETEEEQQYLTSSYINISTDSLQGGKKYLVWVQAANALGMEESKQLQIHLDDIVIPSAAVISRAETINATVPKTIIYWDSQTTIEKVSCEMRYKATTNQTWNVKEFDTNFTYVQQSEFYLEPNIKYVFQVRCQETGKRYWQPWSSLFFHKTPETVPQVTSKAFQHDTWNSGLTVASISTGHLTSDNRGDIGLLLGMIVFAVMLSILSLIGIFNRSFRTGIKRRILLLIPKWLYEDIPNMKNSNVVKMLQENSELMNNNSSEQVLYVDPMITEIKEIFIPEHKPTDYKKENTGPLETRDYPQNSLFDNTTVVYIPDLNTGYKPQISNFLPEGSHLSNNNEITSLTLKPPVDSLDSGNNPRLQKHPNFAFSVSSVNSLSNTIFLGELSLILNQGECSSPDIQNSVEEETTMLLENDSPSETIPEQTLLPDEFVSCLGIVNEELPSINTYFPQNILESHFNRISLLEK

[4] = molecular target: T1, Interleukin-23 receptor; experiment: Inhibition of interleukin-23 receptor in human DB cells assessed as reduction in IL-23-stimulated STAT3 phosphorylation incubated for 30 mins by HTRF assay; assay type: cell-based
[5] = Inhibition of interleukin-23 binding to rat interleukin-23 receptor incubated for 2 hrs by competitive binding ELISA

SMILES | half-life at 20 µM [1] [h] | half-life at 20 µM [2] [h] | IC50 [3] [nM] | IC50 [4] [nM] | IC50 [5] [nM]
CC(=O)N[C@@H](CCCNC(=N)N)C(=O)N[C@H]1CCSC[C@@H](C(=O)N[C@@H](Cc2ccc(OCCN)cc2)C(=O)N[C@@H](Cc2ccc3ccccc3c2)C(=O)N[C@@](C)(CCCCN)C(=O)N[C@@H](CCC(=O)O)C(=O)N[C@@H](CC(N)=O)C(=O)N[C@@H](CC(N)=O)C(N)=O)NC(=O)[C@H](CCC(N)=O)NC(=O)[C@H](Cc2c[nH]c3ccccc23)NC(=O)[C@H]([C@@H](C)O)NC(=O)[C@H](CCC(N)=O)NC1=O | 2 to 3 | < 1 | – | – | –
CC(=O)NCCCC[C@H](NC(=O)C(C)(C)NC(=O)[C@H](Cc1ccc2ccccc2c1)NC(=O)[C@H](Cc1ccc(OCCN)cc1)NC(=O)[C@@H](NC(=O)[C@H](CCC(N)=O)NC(=O)[C@H](Cc1c[nH]c2ccccc12)NC(=O)[C@@H](NC(=O)[C@H](CC(N)=O)NC(=O)[C@@H](NC(=O)[C@@H](Cc1ccccc1)NC(C)=O)C(C)(C)S)[C@@H](C)O)C(C)(C)S)C(=O)N[C@@H](CC(N)=O)C(=O)N[C@@H](CC(N)=O)C(N)=O | > 6 | > 6 | – | – | –
CC(=O)NCCCC[C@H](NC(=O)C(C)(C)NC(=O)[C@H](Cc1ccc2ccccc2c1)NC(=O)[C@H](Cc1ccc(OCCN)cc1)NC(=O)[C@@H](NC(=O)[C@H](CCC(N)=O)NC(=O)[C@H](Cc1c[nH]c2ccccc12)NC(=O)[C@@H](NC(=O)[C@H](CC(N)=O)NC(=O)[C@@H](NC(=O)[C@@H](Cc1ccccc1)NC(C)=O)C(C)(C)S)[C@@H](C)O)C(C)(C)S)C(=O)N[C@@H](CC(N)=O)C(=O)NCCC(N)=O | 3 to 6 | > 6 | – | – | –
CC(=O)NCCCC[C@](C)(NC(=O)[C@H](Cc1ccc2ccccc2c1)NC(=O)[C@H](Cc1ccc(OCCNC(C)=O)cc1)NC(=O)[C@@H](NC(=O)[C@H](CCC(N)=O)NC(=O)[C@H](Cc1c[nH]c2ccccc12)NC(=O)[C@@H](NC(=O)[C@](C)(CCCNC(C)=O)NC(=O)[C@@H](NC(C)=O)C(C)(C)S)[C@@H](C)O)C(C)(C)S)C(=O)N[C@@H](CCC(=O)O)C(=O)N[C@@H](CC(N)=O)C(=O)NCC(N)=O | 3 to 6 | 1 to 2 | 100 to 1000 | – | –
CC(=O)NCCCC[C@H](NC(=O)[C@](C)(CCCN)NC(=O)[C@H](Cc1ccc2ccccc2c1)NC(=O)[C@H](Cc1ccc2ccccc2c1)NC(=O)[C@@H]1CSCC[C@H](NC(C)=O)C(=O)N[C@@H](CCC(N)=O)C(=O)N[C@@H]([C@@H](C)O)C(=O)N[C@@H](Cc2c[nH]c3ccccc23)C(=O)N[C@@H](CCC(N)=O)C(=O)N1)C(=O)N[C@@H](CC(N)=O)C(=O)NCC(N)=O | – | 2 to 3 | 25 to 100 | < 10 | 100 to 1000
CC(=O)N[C@@H](Cc1ccccc1)C(=O)N[C@H]1CCSC[C@@H](C(=O)N[C@@H](Cc2ccc(OCCN)cc2)C(=O)N[C@@H](Cc2ccc3ccccc3c2)C(=O)N[C@@](C)(CCCCN)C(=O)N[C@@H](CCC(=O)O)C(=O)N[C@@H](CC(N)=O)C(=O)N[C@@H](CC(N)=O)C(N)=O)NC(=O)[C@H](CCC(N)=O)NC(=O)[C@H](Cc2c[nH]c3ccccc23)NC(=O)[C@H]([C@@H](C)O)NC(=O)[C@H](CCC(N)=O)NC1=O | 2 to 3 | 1 to 2 | – | – | –
CC(=O)N[C@H](C(=O)N[C@@H](CCC(N)=O)C(=O)N[C@H](C(=O)N[C@@H](Cc1c[nH]c2ccccc12)C(=O)N[C@@H](CCC(N)=O)C(=O)N[C@H](C(=O)N[C@@H](Cc1ccc(O)cc1)C(=O)N[C@@H](Cc1ccc2ccccc2c1)C(=O)N[C@@](C)(CCCN)C(=O)N[C@@H](CCC(=O)O)C(=O)N[C@@H](CC(N)=O)C(=O)NCC(N)=O)C(C)(C)S)[C@@H](C)O)C(C)(C)S | – | 3 to 6 | 25 to 100 | 10 to 25 | 100 to 1000
CC(=O)N[C@H](C(=O)N[C@@H](CCC(N)=O)C(=O)N[C@H](C(=O)N[C@@H](Cc1c[nH]c2ccccc12)C(=O)N[C@@H](CCC(N)=O)C(=O)N[C@H](C(=O)N[C@@H](Cc1ccc(O)cc1)C(=O)N[C@@H](Cc1cccc2ccccc12)C(=O)N[C@@](C)(CCCN)C(=O)N[C@@H](CCC(=O)O)C(=O)N[C@@H](CC(N)=O)C(=O)NCC(N)=O)C(C)(C)S)[C@@H](C)O)C(C)(C)S | – | 3 to 6 | 100 to 1000 | 25 to 100 | 100 to 1000
CC(=O)NCCCC[C@H](NC(=O)[C@](C)(CCCCN)NC(=O)[C@H](Cc1ccc2ccccc2c1)NC(=O)[C@H](Cc1ccc2ccccc2c1)NC(=O)[C@@H]1CSCC[C@H](NC(C)=O)C(=O)N[C@@H](CCC(N)=O)C(=O)N[C@@H]([C@@H](C)O)C(=O)N[C@@H](Cc2c[nH]c3ccccc23)C(=O)N[C@@H](CCC(N)=O)C(=O)N1)C(=O)N[C@@H](CC(N)=O)C(=O)NCC(N)=O | – | 3 to 6 | 25 to 100 | 10 to 25 | 25 to 100
COc1ccc(C[C@H](NC(=O)[C@@H]2CSCC[C@H](NC(C)=O)C(=O)N[C@@H](CCC(N)=O)C(=O)N[C@@H]([C@@H](C)O)C(=O)N[C@@H](Cc3c[nH]c4ccccc34)C(=O)N[C@@H](CCC(N)=O)C(=O)N2)C(=O)N[C@@H](Cc2ccc3ccccc3c2)C(=O)N[C@H](CC(N)=O)C(=O)N[C@@H](CCCCNC(C)=O)C(=O)N[C@@H](CC(N)=O)C(=O)NCC(N)=O)cc1 | – | > 6 | 25 to 100 | 25 to 100 | 100 to 1000
CC(=O)N[C@H]1CCSC[C@@H](C(=O)N[C@@H](Cc2ccc(O)cc2)C(=O)N[C@@H](Cc2c[nH]c3ccccc23)C(=O)N[C@@](C)(CC(C)C)C(=O)N[C@@H](CCC(=O)O)C(=O)N[C@@H](CC(N)=O)C(=O)NCC(N)=O)NC(=O)[C@H](CCC(N)=O)NC(=O)[C@H](Cc2c[nH]c3ccccc23)NC(=O)[C@H]([C@@H](C)O)NC(=O)[C@H](CCC(N)=O)NC1=O | – | < 1 | 10 to 25 | < 10 | 25 to 100

Second part, the molecule after the results:

half-life at 20 µM [1] [h] | half-life at 20 µM [2] [h] | IC50 [3] [nM] | IC50 [4] [nM] | IC50 [5] [nM] | SMILES
> 6 | > 6 | – | – | – | COc1ccc(C[C@H](NC(=O)[C@@H](NC(=O)[C@H](CCC(N)=O)NC(=O)[C@H](Cc2c[nH]c3ccccc23)NC(=O)[C@@H](NC(=O)[C@H](CC(N)=O)NC(=O)[C@@H](NC(C)=O)C(C)(C)S)[C@@H](C)O)C(C)(C)S)C(=O)N[C@@H](Cc2ccc3ccccc3c2)C(=O)N[C@@](C)(CC(C)C)C(=O)N[C@@H](CCCCNC(C)=O)C(=O)N[C@@H](CC(N)=O)C(=O)N[C@@H](CC(N)=O)C(N)=O)cc1
> 6 | > 6 | – | – | – | CC(=O)NCCCC[C@H](NC(=O)[C@](C)(CC(C)C)NC(=O)[C@H](Cc1ccc2ccccc2c1)NC(=O)[C@H](Cc1ccc(C(N)=O)cc1)NC(=O)[C@@H](NC(=O)[C@H](CCC(N)=O)NC(=O)[C@H](Cc1c[nH]c2ccccc12)NC(=O)[C@@H](NC(=O)[C@H](CC(N)=O)NC(=O)[C@@H](NC(C)=O)C(C)(C)S)[C@@H](C)O)C(C)(C)S)C(=O)N[C@@H](CC(N)=O)C(=O)N[C@@H](CC(N)=O)C(N)=O
> 6 | > 6 | – | – | – | CC(=O)NCCCC[C@H](NC(=O)C1(NC(=O)[C@H](Cc2ccc3ccccc3c2)NC(=O)[C@H](Cc2ccc(C(N)=O)cc2)NC(=O)[C@@H](NC(=O)[C@H](CCC(N)=O)NC(=O)[C@H](Cc2c[nH]c3ccccc23)NC(=O)[C@@H](NC(=O)[C@H](CC(N)=O)NC(=O)[C@@H](NC(C)=O)C(C)(C)S)[C@@H](C)O)C(C)(C)S)CCCC1)C(=O)N[C@@H](CC(N)=O)C(=O)N[C@@H](CC(N)=O)C(N)=O
> 6 | > 6 | – | – | – | COc1ccc(C[C@H](NC(=O)[C@@H](NC(=O)[C@H](CCC(N)=O)NC(=O)[C@H](Cc2c[nH]c3ccccc23)NC(=O)[C@@H](NC(=O)[C@H](CC(N)=O)NC(=O)[C@@H](NC(C)=O)C(C)(C)S)[C@@H](C)O)C(C)(C)S)C(=O)N[C@@H](Cc2ccc3ccccc3c2)C(=O)NC2(C(=O)N[C@@H](CCCCNC(C)=O)C(=O)N[C@@H](CC(N)=O)C(=O)N[C@@H](CC(N)=O)C(N)=O)CCOCC2)cc1
3 to 6 | > 6 | – | – | – | CC(=O)NCCCC[C@H](NC(=O)C1(NC(=O)[C@H](Cc2ccc3ccccc3c2)NC(=O)[C@H](Cc2ccc(C(N)=O)cc2)NC(=O)[C@@H](NC(=O)[C@H](CCC(N)=O)NC(=O)[C@H](Cc2c[nH]c3ccccc23)NC(=O)[C@@H](NC(=O)[C@H](CC(N)=O)NC(=O)[C@@H](NC(C)=O)C(C)(C)S)[C@@H](C)O)C(C)(C)S)CCOCC1)C(=O)N[C@@H](CC(N)=O)C(=O)N[C@@H](CC(N)=O)C(N)=O
> 6 | 3 to 6 | – | – | – | COc1ccc(C[C@H](NC(=O)[C@@H](NC(=O)[C@H](CCC(N)=O)NC(=O)[C@H](Cc2c[nH]c3ccccc23)NC(=O)[C@@H](NC(=O)[C@H](CC(N)=O)NC(=O)[C@@H](NC(C)=O)C(C)(C)S)[C@@H](C)O)C(C)(C)S)C(=O)N[C@@H](Cc2ccc3ccccc3c2)C(=O)NC2(C(=O)N[C@@H](CCCCNC(C)=O)C(=O)N[C@@H](CC(N)=O)C(=O)N[C@@H](CC(N)=O)C(N)=O)CCCCC2)cc1
> 6 | > 6 | – | – | – | CC(=O)NCCCC[C@H](NC(=O)C1(NC(=O)[C@H](Cc2ccc3ccccc3c2)NC(=O)[C@H](Cc2ccc(C(N)=O)cc2)NC(=O)[C@@H](NC(=O)[C@H](CCC(N)=O)NC(=O)[C@H](Cc2c[nH]c3ccccc23)NC(=O)[C@@H](NC(=O)[C@H](CC(N)=O)NC(=O)[C@@H](NC(C)=O)C(C)(C)S)[C@@H](C)O)C(C)(C)S)CCCCC1)C(=O)N[C@@H](CC(N)=O)C(=O)N[C@@H](CC(N)=O)C(N)=O
